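Protocol summary: plate cells (96-well), add compound at 5 concentrations, incubate 48 h, interpolate endpoints linearly. GI50: concentration for 50% inhibition of growth. TGI: total growth inhibition.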
Assays:
Test in all cases: inhibition of tumour cell growth, NCI panel, 48 h
[1] = tested on: NCI-H23 lung
[2] = tested on: HL-60(TB) leukemia
[3] = tested on: ACHN renal
[4] = tested on: SF-268 CNS
[5] = tested on: LOX IMVI melanoma
[6] = tested on: A549 NSCLC
[7] = tested on: SK-MEL-28 melanoma
[8] = tested on: RXF 393 renal
[9] = tested on: TK-10 renal
[10] = tested on: DU-145 prostate

| SMILES | TGI [1] [µM] | TGI [2] [µM] | TGI [3] [µM] | TGI [4] [µM] | TGI [5] [µM] | TGI [6] [µM] | TGI [7] [µM] | TGI [8] [µM] | TGI [9] [µM] | TGI [10] [µM] | GI50 [1] [µM] | GI50 [2] [µM] | GI50 [3] [µM] | GI50 [4] [µM] | GI50 [5] [µM] | GI50 [6] [µM] | GI50 [7] [µM] | GI50 [8] [µM] | GI50 [9] [µM] | GI50 [10] [µM] |
| --- | --- | --- | --- | --- | --- | --- | --- | --- | --- | --- | --- | --- | --- | --- | --- | --- | --- | --- | --- | --- |
| CCOc1c2c(cc3c1C(=O)c1c(OC)cccc1C3=O)C=C(OC)CC2 | > 25 | 13.2 | > 25 | > 25 | > 25 | > 25 | > 25 | > 25 | > 25 | > 25 |  |  |  |  |  |  |  |  |  |  |
| O=C(O)COc1c(Cl)cc(Cl)c(C(c2c(Cl)cc(Cl)c(OCC(=O)O)c2Cl)C(Cl)(Cl)Cl)c1Cl | 62.3 | 59.9 | > 100 | > 100 | > 100 | 83.8 | > 100 | 92.7 | 95.8 | > 100 |  |  |  |  |  |  |  |  |  |  |
| Cc1csc(NCc2ccc(Cl)cc2)n1 | > 100 | > 100 | > 100 | > 100 | > 100 | > 100 | > 100 | 79 | > 100 | > 100 |  |  |  |  |  |  |  |  |  |  |
| C=CCCCCCCCCCOC1C=CC(O)C(CO)O1 (stereo not given) | 97.5 | 65.5 | > 100 | > 100 | > 100 | > 100 | > 100 | > 100 | > 100 | > 100 |  |  |  |  |  |  |  |  |  |  |
| COc1ccc(/C=N/n2c(-c3ccccc3)n[nH]c2=O)c(OC)c1 | > 100 | > 100 | > 75.5 | 71.9 | > 100 | > 100 | > 100 | > 93.4 | > 71.5 | > 100 |  |  |  |  |  |  |  |  |  |  |
| COc1cccc(C2c3cc4c(cc3OC(NNS(=O)(=O)c3ccc(C)cc3)C2C)OCO4)c1O (stereo not given) | > 100 | 38.2 | > 100 | > 100 | > 100 | > 100 | 78.8 | 70.9 | 95.2 | > 100 |  |  |  |  |  |  |  |  |  |  |
| O=C(c1ccccc1)c1nn(-c2cccc(Cl)c2)c2nc3nc(-c4ccccc4)cc(=O)n3nc12 | > 25 | 16.7 | > 25 | > 25 | > 25 | > 25 | > 25 | > 25 | > 25 | > 25 | > 25 | 5.1 | > 25 | > 25 | > 25 | > 25 | > 25 | > 25 | > 25 | > 25 |
| CCCNC(=O)c1cc(OC)c(OC)cc1NC(=O)C12CC3CC(CC(C3)C1)C2 | 31.6 | > 100 | 30.9 | 35 | 39.7 | 35.3 | 32.6 | 19.3 | 31.3 | 35.5 |  |  |  |  |  |  |  |  |  |  |
| CC(C)=CC(=O)c1[nH]c2ccccc2c1CC(=O)NCCc1cnc[nH]1 | > 100 | > 100 | > 100 | > 100 | > 100 | > 100 | > 100 | > 100 | > 100 | > 100 |  |  |  |  |  |  |  |  |  |  |
| O=c1[nH]nc(-c2cccc([N+](=O)[O-])c2)[nH]1 | > 100 | > 100 | > 100 | > 100 | > 100 | > 100 | > 100 | > 100 | > 100 | > 100 |  |  |  |  |  |  |  |  |  |  |
| c1ccc(-c2cc(-c3ccccc3)nc(-c3ccncc3)c2)cc1 | > 100 | > 100 | > 100 | > 100 | > 100 | > 100 | > 100 | > 100 | > 100 | > 100 |  |  |  |  |  |  |  |  |  |  |
| CCC(CCCC[C@H]1CC[C@@H]2CC(=O)C[C@H]12)OC (stereo not given in full) | > 100 | > 100 | > 100 | > 100 | > 100 | > 100 | > 100 | > 100 | > 100 | > 100 |  |  |  |  |  |  |  |  |  |  |
| Clc1ccc(Cc2nc3cc4ccccc4cc3[nH]2)cc1Cl | 71.6 | 59.2 | 81.2 | 62.7 | 60.8 | 68.9 | 29.4 | 40.2 | 39.8 | 45.7 |  |  |  |  |  |  |  |  |  |  |
| CC(C)C1OC(=O)C(Cc2ccccc2)N(C)C(=O)C(C(C)C)OC(=O)C(Cc2ccccc2)N(C)C(=O)C(C(C)C)OC(=O)C(Cc2ccccc2)N(C)C1=O (stereo not given) | 2.62 | 1.21 | 1.64 | 3.2 | 2.1 | 1.87 | 2.41 | 2.33 | 2.12 | 3.03 |  |  |  |  |  |  |  |  |  |  |
| Cc1nc2nnc(CCCCCCCCc3nnc4nc(C)[nH]n34)n2[nH]1 | > 100 | > 100 | > 100 | > 100 | > 100 | > 100 | > 100 | > 100 | > 100 | > 100 |  |  |  |  |  |  |  |  |  |  |
| O=C1OCOC2(CCCC2)C1c1ccccc1 (stereo not given) | > 100 | > 100 | > 100 | > 100 | > 100 | > 100 | > 100 | > 100 | > 100 | > 100 |  |  |  |  |  |  |  |  |  |  |
| CN1N=C(c2ccncc2)OC1c1ccc(C(F)(F)F)cc1 (stereo not given) | > 100 | > 100 | > 100 | > 100 | > 100 | > 100 | > 100 | > 100 | > 100 | > 100 |  |  |  |  |  |  |  |  |  |  |
